Laboratory results as given in US20240294489A1 (Captor Therapeutics S.A., priority 2020, published 2024).

What was measured:
Type in all cases: cell-based
Kasumi-1 = assay: Cell viability, additional cell lines (CellTiter-Glo), Kasumi-1; details: Homo sapiens; Kasumi-1, 72 h; read-out: Absolute IC50
Method: (§1) Tumor cells are grown at 37° C. in a humidified atmosphere with 5% CO2 in RPMI 1640 medium, supplemented with 10% (v/v) fetal calf serum and 50 μg/ml gentamicin for up to 20 passages, and are passaged once or twice weekly.
(§2) Cells are harvested from exponential phase cultures, counted and plated in 96 well flat-bottom microtiter plates at a cell density depending on the cell line's growth rate (4,000-20,000 cells/well depending on the cell line's growth rate, up to 60,000 for hematological cancer cell lines) in RPMI 1640 medium supplemented with 10% (v/v) fetal calf serum and 50 μg/ml gentamicin (140 μl/well). Cultures are incubated at 37° C. and 5% CO2 in a humidified atmosphere. After 24 h, 10 μl of test compounds or control medium are added and left on the cells for another 72 h. Compounds are serially diluted in DMSO, transferred in cell culture medium, and added to the assay plates by using a Tecan Freedom EVO 200 robotic platform. The DMSO concentration is kept constant at 0.3% v/v across the assay plate. Viability of cells is quantified by the CellTiter-Glo® cell viability assay (Promega G8462). After incubation of cells, 100 μl of CellTiter-Glo® One Solution Assay reagent are added to each well. Plates are shaken for 2 minutes to induce cell lysis and incubated for 20 minutes prior to reading luminescence (LU) by using the EnVision® Xcite multilabel plate reader (Perkin Elmer). […]

NOMO-1 = assay: Cell viability, additional cell lines (CellTiter-Glo), NOMO-1; details: Homo sapiens, NOMO-1, 72 h; read-out: Absolute IC50
Method: as §1, §2

MOLP-2 = assay: Cell viability, additional cell lines (CellTiter-Glo), MOLP-2; details: MOLP-2, 72 h
Method: as §1, §2

Hep3B cells = assay: Cell viability CTG assay, Hep3B; details: Homo sapiens, 72 h, 0.001-50 μM, read-out: Hep3B Geomean absolute IC50 by molecule, 72 H
Outline: (§3)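 Cells exposed to compound at 0.25% v/v DMSO for 72 h (37° C., 5% CO2). ATP quantified by CellTiter-Glo luminescence, normalized to DMSO control. Absolute IC50 (T/C=50%) by non-linear regression on duplicate means; geometric mean used for averages.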

OCI-AML2 = assay: Cell viability, additional cell lines (CellTiter-Glo), OCI-AML2; details: Homo sapiens, OCI-AML2, 72 h; read-out: Absolute IC50
Method: as §1, §2

H929 cells = assay: Cell viability CTG assay, H929; set-up: key to Geomean absolute IC50 by molecule, 72 H: Inactive represents IC50 > 50 μM; C represents 50 μM ≥ IC50 > 5 μM; details: H929, 72 h, 0.001-50 μM
Outline: as §3

EOL-1 = assay: Cell viability, additional cell lines (CellTiter-Glo), EOL-1; details: Homo sapiens, EOL1; EOL-1, 72 h; read-out: Absolute IC50
Method: as §1, §2

KG-1 = assay: Cell viability, additional cell lines (CellTiter-Glo), KG-1; details: Homo sapiens, KG-1, 72 h
Method: as §1, §2

HEP-3B = assay: Cell viability, additional cell lines (CellTiter-Glo), HEP-3B; details: Homo sapiens, Hep3B, 72 h
Method: as §1, §2

MOLM-6 = assay: Cell viability, additional cell lines (CellTiter-Glo), MOLM-6; details: MOLM-6, 72 h
Method: as §1, §2

GSPT1 = target: T1, GSPT1 (Homo sapiens, UniProt P15170+Q96SW2); assay: GSPT1 degradation assay, Hep3B cell line; details: HEP3B cells, 24 h, read-out: % of GSPT1 protein reduction
T1 construct: GSPT1 degradation in the Hep3B cell line was investigated; endogenous in cells; host or cells: Hep3B
Method: Hep3B cells were maintained in EMEM medium, supplemented with penicillin/streptomycin and 10% Fetal Bovine Serum (FBS). Cells were seeded on 6- or 12-well plates, and the compounds to be tested were added at the desired concentration range. Final DMSO concentration was 0.25%. After 24 h incubation (37° C., 5% CO2), cells were harvested, washed and cell lysates were prepared using RIPA lysis buffer. The amount of protein was determined via BCA assay, and the appropriate quantity was then loaded on the precast gel for the protein separation. After primary and secondary Ab staining, the membranes were washed and signals developed. The densitometry analysis was implemented to obtain the numeric values used later in the protein level evaluation process. Densitometry values were normalized to the loading control and calculated as [%] of the DMSO control.

TMD8 = assay: Cell viability, additional cell lines (CellTiter-Glo), TMD8; details: Homo sapiens, TMD8, 72 h; read-out: Absolute IC50
Method: as §1, §2

22Rv1 = assay: Cell viability, additional cell lines (CellTiter-Glo), 22Rv1; details: Homo sapiens, 22Rv1, 72 h
Method: as §1, §2

PL-21 = assay: Cell viability, additional cell lines (CellTiter-Glo), PL-21; details: PL-21, 72 h; read-out: Absolute IC50
Method: as §1, §2

[1] = 9.5 μM, read-out: Test/Control viability at 9.5 μM

T1 sequence (P15170 whole entry): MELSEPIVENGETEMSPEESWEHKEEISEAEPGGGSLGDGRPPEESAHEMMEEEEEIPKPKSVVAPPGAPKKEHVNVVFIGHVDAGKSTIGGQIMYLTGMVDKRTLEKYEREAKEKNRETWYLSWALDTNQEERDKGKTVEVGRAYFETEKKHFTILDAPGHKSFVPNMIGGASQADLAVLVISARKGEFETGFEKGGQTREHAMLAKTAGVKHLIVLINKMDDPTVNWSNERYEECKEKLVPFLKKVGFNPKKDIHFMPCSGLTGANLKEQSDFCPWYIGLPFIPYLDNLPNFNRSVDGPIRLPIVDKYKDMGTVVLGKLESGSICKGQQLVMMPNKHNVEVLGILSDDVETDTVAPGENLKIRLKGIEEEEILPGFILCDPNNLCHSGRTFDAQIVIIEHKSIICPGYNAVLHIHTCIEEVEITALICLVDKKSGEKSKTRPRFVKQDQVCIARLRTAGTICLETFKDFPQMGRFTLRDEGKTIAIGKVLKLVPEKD
T1 sequence (Q96SW2 whole entry): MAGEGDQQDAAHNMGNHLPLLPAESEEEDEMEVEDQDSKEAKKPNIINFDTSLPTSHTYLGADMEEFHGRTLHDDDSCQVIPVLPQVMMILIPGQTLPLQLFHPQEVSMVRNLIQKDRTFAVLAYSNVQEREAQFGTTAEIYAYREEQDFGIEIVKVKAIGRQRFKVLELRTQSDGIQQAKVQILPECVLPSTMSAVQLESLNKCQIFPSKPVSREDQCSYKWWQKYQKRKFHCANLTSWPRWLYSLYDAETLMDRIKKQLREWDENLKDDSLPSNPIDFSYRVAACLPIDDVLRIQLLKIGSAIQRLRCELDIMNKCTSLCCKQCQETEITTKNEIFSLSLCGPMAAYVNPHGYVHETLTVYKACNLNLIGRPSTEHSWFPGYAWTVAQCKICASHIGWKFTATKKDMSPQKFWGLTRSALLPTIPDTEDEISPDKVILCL
T1 sequence (Q16531 whole entry partner): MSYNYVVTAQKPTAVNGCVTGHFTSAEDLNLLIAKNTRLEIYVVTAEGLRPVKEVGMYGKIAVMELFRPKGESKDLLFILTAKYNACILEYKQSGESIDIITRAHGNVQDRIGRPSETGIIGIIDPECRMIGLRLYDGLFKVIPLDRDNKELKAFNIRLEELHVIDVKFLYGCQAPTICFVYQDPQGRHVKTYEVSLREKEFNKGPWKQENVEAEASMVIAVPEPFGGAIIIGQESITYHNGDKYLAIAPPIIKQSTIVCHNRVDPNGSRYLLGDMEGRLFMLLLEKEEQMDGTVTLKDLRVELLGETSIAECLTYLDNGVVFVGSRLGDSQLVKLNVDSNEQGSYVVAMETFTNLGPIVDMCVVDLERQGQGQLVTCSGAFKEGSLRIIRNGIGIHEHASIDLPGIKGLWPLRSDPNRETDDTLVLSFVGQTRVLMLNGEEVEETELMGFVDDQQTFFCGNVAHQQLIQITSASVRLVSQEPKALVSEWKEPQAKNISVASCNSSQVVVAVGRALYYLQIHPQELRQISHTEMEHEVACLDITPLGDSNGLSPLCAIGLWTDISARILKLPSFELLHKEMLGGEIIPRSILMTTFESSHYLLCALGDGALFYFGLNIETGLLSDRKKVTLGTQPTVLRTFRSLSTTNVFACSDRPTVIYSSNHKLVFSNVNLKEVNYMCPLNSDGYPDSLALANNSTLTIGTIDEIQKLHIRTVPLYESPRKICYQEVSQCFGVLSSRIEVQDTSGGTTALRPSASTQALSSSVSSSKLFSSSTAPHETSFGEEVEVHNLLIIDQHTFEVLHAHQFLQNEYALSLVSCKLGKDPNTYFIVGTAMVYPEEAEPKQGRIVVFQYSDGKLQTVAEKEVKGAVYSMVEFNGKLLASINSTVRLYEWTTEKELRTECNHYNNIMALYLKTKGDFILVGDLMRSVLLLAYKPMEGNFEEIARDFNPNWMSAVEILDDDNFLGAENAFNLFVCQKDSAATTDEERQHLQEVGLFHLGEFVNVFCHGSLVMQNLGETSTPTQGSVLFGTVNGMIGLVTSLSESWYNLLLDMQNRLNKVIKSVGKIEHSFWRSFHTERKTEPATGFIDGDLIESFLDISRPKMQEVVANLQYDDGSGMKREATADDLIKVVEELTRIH

IC50 (Hep3B cells): ≤ 100 nM | IC50 (OCI-AML2): > 30000 nM | Geomean absolute IC50 by molecule, 72 H (H929 cells): Inactive | IC50 (HEP-3B; read-out: Absolute IC50): 100 to 1000 nM | IC50 (MOLM-6; read-out: Absolute IC50): 100 to 1000 nM | inhibition at 1 µM (GSPT1; 1 uM): 80 to 100% | inhibition at 10 µM (GSPT1; 10 uM): 80 to 100% | IC50 (22Rv1; read-out: Absolute IC50): ≥ 30000 nM
SMILES: NCc1ccc2c(c1)CN(C1CCC(=O)NC1=O)C2=O (centres unmarked) [Compound 1, 3-(5-(aminomethyl)-1-oxoisoindolin-2-yl)piperidine-2,6-dione]
IC50 (Kasumi-1): > 30000 nM | IC50 (NOMO-1): > 30000 nM | viability at 9.5 µM (MOLP-2; [1]): ≤ 60% | IC50 (MOLP-2; read-out: Absolute IC50): 100 to 1000 nM | IC50 (EOL-1): > 30000 nM | IC50 (KG-1; read-out: Absolute IC50): ≤ 100 nM | viability at 9.5 µM (KG-1; [1]): ≤ 30% | viability at 9.5 µM (HEP-3B; [1]): ≤ 30% | viability at 9.5 µM (MOLM-6; [1]): ≤ 60% | IC50 (TMD8): > 30000 nM | viability at 9.5 µM (22Rv1; [1]): ≤ 60% | IC50 (PL-21): > 30000 nM
